Experimental data reported in PMC11770821, “Pharmacokinetics and pharmacodynamics of an innovative psychedelic N,N-dimethyltryptamine/harmine formulation in healthy participants: a randomized controlled trial” (International Journal of Neuropsychopharmacology, 2025).

What was measured:
healthy male volunteers [1] = test: Acute subjective drug effects, visual analog scales (VAS 0–100); assay type: in vivo, human; settings: for subjective ratings of acute drug effects compared to placebo: 100 mg buccal harmine alone vs placebo
Protocol: The detailed dosing scheme is depicted in Figure 1.
The intensity of acute subjective effects was monitored with visual analog scales (VASs, range 0–100) on a touchscreen tablet throughout the study day at baseline (−90), 0, 30, 60, 90, 120, 180, 240, and 300 after the first DMT/placebo administration. At 360 minutes after the first DMT/placebo administration, a phenomenological interview was conducted with participants to further explore acute subjective drug effects. For PK-PD analyses, we included VAS for intensity, liking, disliking, and arousal in the present paper. Further analyses on a set of neurophysiological, psychometric, and phenomenological assessments will be presented in forthcoming manuscripts.

healthy male volunteers [2] = test: Undesired drug effects / adverse events questionnaire (y/n and VAS 0–100); assay type: in vivo, human
Protocol: The participants were monitored with regard to AEs throughout the experiment by the study physician, including questionnaire-based assessments (VAS, 0-100 or y/n) of physical and mental discomfort, breathing difficulties, racing heartbeat, chest or abdominal pains, unpleasant body sensations/muscle pain, headache, nausea, vomiting, and fainting at baseline (−105), 0, 30, 60, 120, 240, and 300 minutes after DMT/placebo administration. Vital signs (systolic/diastolic blood pressure [DBP], heart rate, body temperature [BT]) were assessed using a semiautomatic blood pressure and oral temperature recording device throughout the study at baseline (−45), 0, 30, 120, 150, 210, and 270 minutes after the first DMT/placebo administration.

[3] = 0 min after first intranasal DMT/placebo administration
[4] = 60 min after first intranasal DMT/placebo administration
[5] = 120 min after first intranasal DMT/placebo administration
[6] = 180 min after first intranasal DMT/placebo administration

## COc1ccc2c(c1)[nH]c1c(C)nccc12 [Harmine, harmine]
Healthy male volunteers [1]
  subjective ratings of acute drug effects compared to placebo: no statistical differences
Healthy male volunteers [1]; listed as HAR
  subjective ratings of acute drug effects compared to placebo: no significant difference
Healthy male volunteers [1]; at 90 minutes (max. intensity ratings)
  effect size, intensity ratings, contrast vs PLA: 0.133
Healthy male volunteers [1]; at 240 minutes
  effect size, intensity ratings, contrast vs PLA: 0.127
Healthy male volunteers [1]; mean (SD)
  peak effects of arousal, VAS: 9.9 % of the maximal possible scor
  peak effects of disliking, VAS: 7.8 % of the maximal possible scor
  peak effects of liking, VAS: 20.0 % of the maximal possible scor
  peak intensity, VAS: 7.6 % of the maximal possible scor
Healthy male volunteers [2]; [3]
  Breathing difficulty, mean intensity [0–100] (SD): 18 (25)
  Breathing difficulty, number of participants reporting: 3
  Chest pain, mean intensity [0–100] (SD): 24 (32)
  Chest pain, number of participants reporting: 2
  Fainting, mean intensity [0–100] (SD): 0 (0)
  Fainting, number of participants reporting: 0
  Head ache, mean intensity [0–100] (SD): 3 (0)
  Head ache, number of participants reporting: 1
  Heart racing, mean intensity [0–100] (SD): 28 (35)
  Heart racing, number of participants reporting: 2
  Muscle ache, mean intensity [0–100] (SD): 9 (7)
  Muscle ache, number of participants reporting: 6
  Nausea, mean intensity [0–100] (SD): 2 (0)
  Nausea, number of participants reporting: 1
  Psychological distress, mean intensity [0–100] (SD): 6 (2)
  Psychological distress, number of participants reporting: 3
  Somatic distress, mean intensity [0–100] (SD): 18 (14)
  Somatic distress, number of participants reporting: 5
  Stomach ache, mean intensity [0–100] (SD): 2 (0)
  Stomach ache, number of participants reporting: 1
  Vomiting, mean intensity [0–100] (SD): 0 (0)
  Vomiting, number of participants reporting: 0
Healthy male volunteers [2]; [4]
  Breathing difficulty, mean intensity [0–100] (SD): 21 (28)
  Breathing difficulty, number of participants reporting: 2
  Chest pain, mean intensity [0–100] (SD): 13 (8)
  Chest pain, number of participants reporting: 2
  Fainting, mean intensity [0–100] (SD): 0 (0)
  Fainting, number of participants reporting: 0
  Head ache, mean intensity [0–100] (SD): 34 (47)
  Head ache, number of participants reporting: 2
  Heart racing, mean intensity [0–100] (SD): 9 (0)
  Heart racing, number of participants reporting: 1
  Muscle ache, mean intensity [0–100] (SD): 22 (0)
  Muscle ache, number of participants reporting: 2
  Nausea, mean intensity [0–100] (SD): 11 (10)
  Nausea, number of participants reporting: 3
  Psychological distress, mean intensity [0–100] (SD): 8 (8)
  Psychological distress, number of participants reporting: 2
  Somatic distress, mean intensity [0–100] (SD): 9 (5)
  Somatic distress, number of participants reporting: 5
  Stomach ache, mean intensity [0–100] (SD): 52 (0)
  Stomach ache, number of participants reporting: 1
  Vomiting, mean intensity [0–100] (SD): 0 (0)
  Vomiting, number of participants reporting: 0
Healthy male volunteers [2]; [5]
  Breathing difficulty, mean intensity [0–100] (SD): 7 (8)
  Breathing difficulty, number of participants reporting: 3
  Chest pain, mean intensity [0–100] (SD): 4 (3)
  Chest pain, number of participants reporting: 3
  Fainting, mean intensity [0–100] (SD): 0 (0)
  Fainting, number of participants reporting: 0
  Head ache, mean intensity [0–100] (SD): 11 (0)
  Head ache, number of participants reporting: 1
  Heart racing, mean intensity [0–100] (SD): 5 (5)
  Heart racing, number of participants reporting: 3
  Muscle ache, mean intensity [0–100] (SD): 10 (9)
  Muscle ache, number of participants reporting: 3
  Nausea, mean intensity [0–100] (SD): 15 (0)
  Nausea, number of participants reporting: 1
  Psychological distress, mean intensity [0–100] (SD): 4 (5)
  Psychological distress, number of participants reporting: 2
  Somatic distress, mean intensity [0–100] (SD): 7 (5)
  Somatic distress, number of participants reporting: 7
  Stomach ache, mean intensity [0–100] (SD): 30 (37)
  Stomach ache, number of participants reporting: 2
  Vomiting, mean intensity [0–100] (SD): 0 (0)
  Vomiting, number of participants reporting: 0
Healthy male volunteers [2]; [6]
  Breathing difficulty, mean intensity [0–100] (SD): 0 (0)
  Breathing difficulty, number of participants reporting: 0
  Chest pain, mean intensity [0–100] (SD): 0 (0)
  Chest pain, number of participants reporting: 0
  Fainting, mean intensity [0–100] (SD): 0 (0)
  Fainting, number of participants reporting: 0
  Head ache, mean intensity [0–100] (SD): 72 (0)
  Head ache, number of participants reporting: 1
